Columns and labels:
mammals = details: used in mammals; cited from earlier work
liver [1] = assay: Rat liver visualized by laser excitation light delivered by fiber optics through a laparoscope; assay type: in vivo; details: male Sprague-Dawley rat
liver [2] = assay: Liver visualization by fluorescent dye in adult pig model after RF thermal ablation (SPY imaging system); assay type: in vivo; details: intravenous bolus, liver subjected to RF ablation
[3] = cited from earlier work

Compound	toxicity in mammals (mammals)	fluorescence of liver under laparoscopic laser excitation (liver [1])	fluorescence of liver tissue (perfusion) under laser excitation (liver [2])	distribution ([3]; after intravenous injection, with normal vascular permeability)	metabolism ([3]; in the body)	enterohepatic recirculation ([3]; in vivo)	excretion route ([3]; in vivo)	intestinal reabsorption ([3]; in vivo)
N=C(N)c1ccc(/C=C/c2ccc(C(=N)N)cc2O)cc1 [Fluorogold]	low evidence of toxicity	–	–	–	–	–	–	–
CC1(C)C(/C=C/C=C/C=C/C=C2\N(CCCCS(=O)(=O)O)c3ccc4ccccc4c3C2(C)C)=[N+](CCCCS(=O)(=O)[O-])c2ccc3ccccc3c21 [ICG, indocyanine green]	low evidence of toxicity	The brightly fluorescing structure is the liver	The lighter areas to the right and bottom sides of the photos indicate normal liver tissue	remains intravascular	not metabolized in the body	does not undergo enterohepatic recirculation	excreted exclusively by the liver	not reabsorbed from the intestine
Fast Blue	low evidence of toxicity	–	–	–	–	–	–	–

— patent publication US20080249400A1, “Intraoperative Imaging Of Hepatobiliary Structures” (University of Rochester Medical Center, priority 2006, published 2008)
